Results on 21 compounds are retold here after patent US20240300980A1, “HETEROCYCLIC COMPOUNDS AS KRAS INHIBITOR, AND PREPARATION THEREFOR AND USE THEREOF IN TREATMENT” (SHANGHAI KECHOW PHARMA, INC., priority 2021, published 2024).

The subject of one assay is AGS cells (KRAS^G12D). The assay can be described thus: Detection of cell proliferation in vitro by MTT/MTS method (cell activity experiment). Type of assay: cell-based. The note with it: AGS cells; MTT/MTS; 3 days of drug treatment; read-out: AGS IC50. Put shortly: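 After 3-day compound exposure (final DMSO 0.5%), viability of AGS (KRAS G12D) cells, plated 1000/well one day before dosing, was measured at 490 nm following 4 h MTT or MTS incubation. IC50 was fitted from dose–effect curves relative to DMSO-treated wells.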
(In general: Tetrazolium dyes change colour on reduction, which living cells bring about.)
Broadly, the IC50 is the midpoint of a concentration-inhibition curve. Take `C#Cc1c(F)ccc2cc(O)cc(-c3ccc4c(N5C[C@H]6CC[C@@H](C5)[C@@H]6O)nc(OC[C@@]56CCCN5C[C@H](F)C6)nc4c3F)c12` [Example 118, (1R,5S,8R)-3-(7-(8-ethynyl-7-fluoro-3-hydroxynaphthalen-1-yl)-8-fluoro-2-(((2R,7aS)-2-fluorotetrahydro-1H-pyrrolizin-7a(5H)-yl)methoxy)quinazolin-4-yl)-3-azabicyclo [3.2.1]octan-8-ol]: the IC50 is over 2500 nM.

Staying with this assay, now noted: Homo sapiens, AGS, 72 h, AGS cells; MTT/MTS; 3 days of drug treatment; read-out: AGS IC50.
For the compound `C#Cc1cccc2cc(O)cc(N3CCc4c(nc(OC[C@@]56CCCN5C[C@H](F)C6)nc4N4C[C@H]5CC[C@@H](C4)N5)C3)c12` [Example 206, 4-(4-((1R,5S)-3,8-diazabicyclo[3.2.1]octan-3-yl)-2-(((2R,7aS)-2-fluorotetrahydro-1H-pyrrolizin-7a(5H)-yl)methoxy)-5,8-dihydropyrido[3,4-d]pyrimidin-7(6H)-yl)-5-ethynylnaphthalen-2-ol], the IC50 came out at 20 nM.
As for `C#Cc1c(F)ccc2cc(O)cc(-c3ncc4c(N5C[C@H]6CC[C@@H](C5)N6)nc(OCC56CCCC5N(C)CC6)nc4c3F)c12` (stereo partly drawn) [Example 74, 4-(4-((1R,5S)-3,8-diazabicyclo [3.2.1]octan-3-yl)-8-fluoro-2-((1-methylhexahydrocyclo-penta[b]pyrrol-3a(1H)-yl)methoxy)pyrido[4,3-d]pyrimidin-7-yl)-5-ethynyl-6-fluoronaphthalen-2-ol], the IC50 is over 2500 nM.
With `N#Cc1c(OC[C@@]23CCCN2C[C@H](F)C3)nc2c(F)c(-c3cc(O)cc4cccc(F)c34)ccc2c1N1C[C@H]2CC[C@@H](C1)N2` [Example 180, 4-((1R,5S)-3,8-diazabicyclo[3.2.1]octan-3-yl)-8-fluoro-7-(8-fluoro-3-hydroxynaphthalen-1-yl)-2-(((2R,7aS)-2-fluorotetrahydro-1H-pyrrolizin-7a(5H)-yl)methoxy)quinoline-3-carbonitrile], the IC50 was 556 nM.
As to `C#Cc1c(F)ccc2cc(O)cc(-c3ncc4c(N5C[C@H]6CC[C@@H](C5)N6)nc(OCC56CC5CN(C)C6)nc4c3F)c12` (stereo partly drawn) [Example 76, 4-(4-((1R,5S)-3,8-diazabicyclo[3.2.1]octan-3-yl)-8-fluoro-2-((3-methyl-3-azabicyclo [3.1.0]hexan-1-yl)methoxy)pyrido[4,3-d]pyrimidin-7-yl)-5-ethynyl-6-fluoronaphthalen-2-ol], the IC50 was over 2500 nM.
As to `CC1CCCc2cc(O)cc(-c3ncc4c(NCC5(N(C)C)CCC5)nc(OC[C@@]56CCCN5C[C@H](F)C6)nc4c3F)c21` (stereo partly drawn) [Example 421, 4-(4-(((1-(dimethylamino)cyclobutyl)methyl)amino)-8-fluoro-2-(((2R,7aS)-2-fluorotetrahydro-1H-pyrrolizin-7a(5H)-yl)methoxy)pyrido[4,3-d]pyrimidin-7-yl)-5-methyl-5,6,7,8-tetrahydronaphthalen-2-ol], the IC50 is 26 nM.
On to `CC1CCc2cc(O)cc(-c3cc4nc(OC[C@@]56CCCN5C[C@H](F)C6)nc(N5C[C@H]6CC[C@@H](C5)N6)c4c4occc34)c21` (stereo partly drawn) [Example 385, 7-(9-((1R,5S)-3,8-diazabicyclo[3.2.1]octan-3-yl)-7-(((2R,7aS)-2-fluorotetrahydro-1H-pyrrolizin-7a(5H)-yl)methoxy)furo[2,3-f]quinazolin-4-yl)-1-methyl-2,3-dihydro-1H-inden-5-ol], for which the IC50 turned out to be 459 nM.
On the same count and under the same terms, the value for `C#Cc1c(F)ccc2cc(O)cc(-c3ncc4c(N5CC6CCC(C5)C6F)nc(OC[C@@]56CCCN5C[C@H](F)C6)nc4c3F)c12` (stereo partly drawn) [Example 34, 5-ethynyl-6-fluoro-4-(8-fluoro-4-((1R,5S, 8R)-8-fluoro-3-azabicyclo [3.2.1]octan-3-yl)-2-(((2R,7aS)-2-fluorotetrahydro-1H-pyrrolizin-7a(5H)-yl)methoxy)pyrido[4,3-d]pyrimidin-7-yl) naphthalen-2-ol] was over 2500 nM.
For `CC1CCCc2cc(O)cc(-c3c4c(c5c(N6C[C@H]7CC[C@@H](C6)N7)nc(OC[C@@]67CCCN6C[C@H](F)C7)nc5c3F)CCC4)c21` (stereo partly drawn) [Example 382, 4-(1-((1R,5S)-3,8-diazabicyclo[3.2.1]octan-3-yl)-5-fluoro-3-(((2R,7aS)-2-fluorotetrahydro-1H-pyrrolizin-7a(5H)-yl)methoxy)-8,9-dihydro-7H-cyclopenta[f]quinazolin-6-yl)-5-methyl-5,6,7,8-tetrahydronaphthalen-2-ol], the IC50 was 45 nM.
As to `C#Cc1c(F)ccc2cc(O)cc(-c3ncc4c(N5CCC6(CC5)CO[C@@H](C)[C@H]6N)nc(OC[C@@]56CCCN5C[C@H](F)C6)nc4c3F)c12` [Example 55, 4-(4-((3S,4S)-4-amino-3-methyl-2-oxa-8-azaspiro[4.5]decan-8-yl)-8-fluoro-2-(((2R, 7aS)-2-fluorotetrahydro-1H-pyrrolizin-7a(5H)-yl)methoxy)pyrido[4,3-d]pyrimidin-7-yl)-5-ethynyl-6-fluoronaphthalen-2-ol], the IC50 is over 2500 nM.
Same read-out and setting: the figure for `Oc1cc(-c2ncc3c(N4C[C@H]5CC[C@@H](C4)N5)nc(OCC4(CN5CCCC5)CC4)nc3c2F)c2c(F)cccc2c1` [Example 6, 4-(4-((1R,5S)-3,8-diazabicyclo[3.2.1]octan-3-yl)-8-fluoro-2-((1-(pyrrolidin-1-ylmethyl)cyclopropyl)methoxy)pyrido[4,3-d]pyrimidin-7-yl)-5-fluoronaphthalen-2-ol] is 14 nM; for `CN1CCc2cc(O)cc(-c3ncc4c(N5C[C@H]6CC[C@@H](C5)N6)nc(OC[C@@]56CCCN5C[C@H](F)C6)nc4c3F)c2C1=O` [Example 273, 8-(4-((1R,5S)-3,8-diazabicyclo[3.2.1]octan-3-yl)-8-fluoro-2-(((2R,7aS)-2-fluorotetrahydro-1H-pyrrolizin-7a(5H)-yl)methoxy)pyrido[4,3-d]pyrimidin-7-yl)-6-hydroxy-2-methyl-3,4-dihydroisoquinolin-1(2H)-one] it is over 2500 nM; for `C#Cc1cccc2cc(O)cc(-c3ccc4c(N5CCC6(CC5)CO[C@@H](C)[C@H]6N)nc(OC[C@@]56CCCN5C[C@H](F)C6)nc4c3F)c12` [Example 115, 4-(4-((3S,4S)-4-amino-3-methyl-2-oxa-8-azaspiro[4.5]decan-8-yl)-8-fluoro-2-(((2R, 7aS)-2-fluorotetrahydro-1H-pyrrolizin-7a(5H)-yl)methoxy)quinazolin-7-yl)-5-ethynylnaphthalen-2-ol] it is over 2500 nM.
As for `CCc1cccc2cc(O)cc(N3CCc4c(nc(OC[C@@]56CCCN5C[C@H](F)C6)nc4N4C[C@H]5CC[C@@H](C4)N5)C3)c12` [Example 207, 4-(4-((1R,5S)-3,8-diazabicyclo[3.2.1]octan-3-yl)-2-(((2R,7aS)-2-fluorotetrahydro-1H-pyrrolizin-7a(5H)-yl)methoxy)-5,8-dihydropyrido[3,4-d]pyrimidin-7(6H)-yl)-5-ethylnaphthalen-2-ol], the IC50 came to 25 nM.
As to `Nc1cc2ccc(F)c(Cl)c2c(-c2ncc3c(N4C[C@H]5CC[C@@H](C4)N5)nc(OC[C@@]45CCCN4C[C@H](F)C5)nc3c2F)n1` [Example 39, 1-(4-((1R,5S)-3,8-diazabicyclo[3.2.1]octan-3-yl)-8-fluoro-2-(((2R,7aS)-2-fluorotetrahydro-1H-pyrrolizin-7a(5H)-yl)methoxy)pyrido[4,3-d]pyrimidin-7-yl)-8-chloro-7-fluoroisoquinolin-3-amine], the IC50 is over 2500 nM.
Regarding `C#Cc1c(F)ccc2cc(O)cc(-c3ncc4c(N5CCC(N)C5)nc(OC[C@@]56CCCN5C[C@H](F)C6)nc4c3F)c12` (stereo partly drawn) [Example 51, 4-(4-(3-aminopyrrolidin-1-yl)-8-fluoro-2-(((2R, 7aS)-2-fluorotetrahydro-1H-pyrrolizin-7a(5H)-yl)methoxy)pyrido[4,3-d]pyrimidin-7-yl)-5-ethynyl-6-fluoronaphthalen-2-ol], the IC50 was 1660 nM.
Same read-out and setting: the value for `Oc1ccc2c(C#Cc3ccc4c(N5C[C@H]6CC[C@@H](C5)N6)nc(OC[C@@]56CCCN5C[C@H](F)C6)nc4c3F)c(F)ccc2c1` [Example 367, 5-((4-((1R,5S)-3,8-diazabicyclo[3.2.1]octan-3-yl)-8-fluoro-2-(((2R,7aS)-2-fluorotetrahydro-1H-pyrrolizin-7a(5H)-yl)methoxy)quinazolin-7-yl)ethynyl)-6-fluoronaphthalen-2-ol] was 194 nM; that for `C#Cc1c(F)ccc2cc(O)cc(-c3cc4nc(OC[C@@]56CCCN5C[C@H](F)C6)c(C#N)c(N5C[C@H]6CC[C@@H](C5)N6)c4cn3)c12` [Example 188, 4-((1R,5S)-3,8-diazabicyclo[3.2.1]octan-3-yl)-7-(8-ethynyl-7-fluoro-3-hydroxynaphthalen-1-yl)-2-(((2R,7aS)-2-fluorotetrahydro-1H-pyrrolizin-7a(5H)-yl)methoxy)-1,6-naphthyridine-3-carbonitrile] was 1550 nM.
As for `C#CC1CCCc2cc(O)cc(-c3ncc4c(N5C[C@H]6CC[C@@H](C5)N6)nc(OC[C@@]56CCCN5C[C@H](F)C6)nc4c3F)c21` (stereo partly drawn) [Example 248, 4-(4-((1R,5S)-3,8-diazabicyclo[3.2.1]octan-3-yl)-8-fluoro-2-(((2R,7aS)-2-fluorotetrahydro-1H-pyrrolizin-7a(5H)-yl)methoxy)pyrido[4,3-d]pyrimidin-7-yl)-5-ethynyl-5,6,7,8-tetrahydronaphthalen-2-ol], the IC50 is 6.7 nM.
Take `C#Cc1c(F)ccc2cc(O)cc(-c3ncc4c(N5CC6CCCNC6C5)nc(OC[C@@]56CCCN5C[C@H](F)C6)nc4c3F)c12` (stereo partly drawn) [Example 52, 5-ethynyl-6-fluoro-4-(8-fluoro-2-(((2R,7aS)-2-fluorotetrahydro-1H-pyrrolizin-7a(5H)-yl)methoxy)-4-(octahydro-6H-pyrrolo[3,4-b]pyridin-6-yl)pyrido[4,3-d]pyrimidin-7-yl)naphthalen-2-ol]: the IC50 was over 2500 nM.
For `C#Cc1c(F)ccc2cc(O)cc(-c3ccc4c(N5C[C@H]6CC[C@@H](C5)N6)nc(OC[C@@]56CCCN5C[C@H](F)C6)nc4c3O)c12` [Example 328, 4-((1R,5S)-3,8-diazabicyclo[3.2.1]octan-3-yl)-7-(8-ethynyl-7-fluoro-3-hydroxynaphthalen-1-yl)-2-(((2R,7aS)-2-fluorotetrahydro-1H-pyrrolizin-7a(5H)-yl)methoxy)quinazolin-8-ol], the IC50 worked out at 8910 nM.
